Test results: patent US20180028680A1, “GLYCOOPTIMIZED ANTIBODY DRUG CONJUGATES” (GLYCOTOPE GMBH, priority 2015, published 2018)

System: SK-BR-3 cells
Assay: Inhibition of proliferation, MTT assay
Assay type: cell-based, human
Conditions: 20 nM, positive control
Procedure: The MTT assay is a non-radioactive assay based on the cleavage of the soluble yellow tetrazolium salt MTT (3-[4,5-Dimethylthiazol-2-yl]-2,5-diphenyltetrazolium bromide; Thiazolyl Blue) by mitochondrial dehydrogenases of viable cells. […] The absorbance signal is a direct measure for viable cells in the culture.
Human IgG1 or medium alone served as negative controls. Briefly, SK-BR-3 cells were grown for 2 days in 96-well flat bottom plates. […] The supernatant was completely removed and MTT was added. Cells were incubated for 2 hours with MTT at 37° C. in a humidified CO2 incubator. The supernatant was removed and cells were lysed using HCI and 2-propanol containing lysis buffer for 1 h at room temperature in the dark. Absorbance at 570 nm/630 nm was measured in a plate reader Infinite F200 (Tecan Austria GmbH).
Proliferation after 4 days of incubation with the antibodies was calculated relative to the proliferation in the medium control.

CC(=O)O[C@H]1C(=O)[C@@]2(C)[C@H]([C@H](OC(=O)c3ccccc3)[C@]3(O)C[C@H](OC(=O)[C@H](O)[C@@H](NC(=O)c4ccccc4)c4ccccc4)C(C)=C1C3(C)C)[C@]1(OC(C)=O)CO[C@@H]1C[C@@H]2O [Taxol]
proliferation compared to the medium control: 6%
